Source: patent US20140221286A1, “SODIUM CHANNEL BLOCKERS REDUCE GLUCAGON SECRETION” (Gilead Sciences, Inc., priority 2011, published 2014)

Columns and labels:
[1] = tested on: peak Na+ current (INa) in rat isolated pancreatic α-cells; assay: Peak Na+ current (INa) in isolated pancreatic α-cells, perforated patch-clamp; assay type: cell-based
Description: Acutely isolated pancreatic islets were allowed to recover overnight at 37° C./5% CO2 in Islet Media (RMPI 1640 supplemented with 10 mM HEPES, 1 mM sodium pyruvate, 10% FBS, 100 U/mL penicillin, 100 μg/mL streptomycin, 2 mM L-glutamine). The islets were resuspended and then centrifuged for 3 minutes at 200×g. The supernatant was discarded and 20 mL of filtered DPBS-EDTA was added (DPBS without Ca and Mg, 3 mM EDTA (G Biosciences), 0.5% BSA (Sigma), 1.5 mM dextrose (Sigma). The islets were incubated for 3 minutes at 37° C./5% CO2 and then centrifuged for 3 minutes at 200×g. The pellet was resuspended in 5 mL of pre-warmed Accutase (Sigma) and transferred into a 60 mm suspension culture dish and incubated for 3 minutes at 37° C./5% CO2. The digested islets were centrifuged for 3 minutes at 200×g to remove the accutase and the pellet was resuspended in 20 mL of room temperature DPBS-EDTA as defined above but with BSA increased to 4%. The digested islets were gently triturated 10 times with a flamed, glass Pasteur pipette and the suspension was then applied to a […] cell strainer. The resulting single cell suspension was centrifuged for 3 minutes at 200×g and the cells were resuspended in 2 mL of pre-warmed Islet Media. The number of live cells was counted and diluted to 1×10^5 with Islet Media. […]
Membrane potential and ion channel currents were recorded 24-72 hours after dispersion using the perforated patch configuration. […] Series resistance (Rs) was monitored using a voltage step from −70 mV to 0 mV (5 ms, 0.5 Hz) and was allowed to stabilize prior to beginning the experiment (Rs<30 MOhm).
The identity of the α-cell was confirmed using cell size (membrane capacitance <6 pF) and the presence of electrical activity in low (3 mM) extracellular glucose, which are hallmarks of dispersed α-cells. […] All recordings were made using pClamp 10.2 and were analyzed using Microsoft Excel 2003, Graphpad Prism7 or OriginPro7.
Recordings of ionic currents were made at 32° C. […] INa was measured using a voltage step to 0 mV (20 ms, 0.2 Hz) from a holding potential of either −70 mV or −90 mV. […]

[2] = tested on: human pancreatic islets; assay: Glucagon secretion in human pancreatic islets under low glucose (3 mM), ELISA; assay type: cell-based; conditions: 3 mM glucose
[3] = tested on: ZDF diabetic rats; assay: ZDF diabetic rats, animal model of type 2 diabetes; assay type: in vivo, rat; conditions: for water consumption (surrogate marker for diabetes) / HbA1c levels versus vehicle group / fasting plasma glucose levels versus vehicle: in Purina 5008 diet; for water consumption (surrogate marker for diabetes): during diabetes development; for HbA1c levels versus vehicle group: weeks 4, 6 and 8; for fasting plasma glucose levels versus vehicle: weeks 7 and 9
Description: All sections from fluorescent staining were viewed under fluorescent microscope and the stained areas were digitally photographed at a magnification of 20×. The images taken at different magnification were normalized using the standard ruler grade (S1 Finder Graticule, 68040, Electron Microscopy Science, Hatfield, Pa.). Analyses of islet areas and entire section areas were performed using ImageJ software (NIH, MD). Three sections from each of 6 animals per treatment group were analyzed. Data are presented as mean±SEM. *, p<0.05; **, p<0.01; ***, p<0.001 by One-way ANOVA.
Male ZDF Leprfa/Crl rats were received at 5 weeks of age from Charles River Laboratories Inc., (Wilmington, Mass.) and were acclimated until study initiation at 6 weeks of age. Drugs were given to the animals in Purina 5008 for 10 weeks at doses approximately 170 mg/kg/d of ranolazine, 0.6 mg/kg/d of compound A and 30 mg/kg/d of sitagliptin as positive control. Fasting (12-14 h fast) and non-fasting blood samples were obtained by tail-nick and blood glucose was measured using a Freestyle Lite glucose meter (Abbott Laboratories Inc., Abbott Park, Ill.). HbA1c levels were monitored every other week. Twenty four hour water consumption as surrogate marker for diabetes for each rat was measured at least once per week.

Structure (SMILES)	block of peak INa ([1]; 1 μM, at −90 and -70 mV)	maximal reduction of glucagon secretion as compared to the vehicle control ([2]; at 3 μM) [%]	insulin staining per islet ([3]; 10 weeks treatment) [%]	islet area/pancreas area ([3]; 10 weeks treatment) [%]	staining of glucagon per islet versus vehicle ([3]; 10 weeks treatment)	water consumption (surrogate marker for diabetes) [3]	HbA1c levels versus vehicle group [3]	fasting plasma glucose levels versus vehicle [3]	block of peak INa ([1]; 10 μM, holding potential −70 mV) [%]	block of peak INa ([1]; 10 μM, holding potential −90 mV) [%]	maximal reduction of glucagon secretion as compared to the vehicle control ([2]; at 30 μM) [%]	insulin/glucagon ratio ([3]; 10 weeks treatment)
FC(F)(F)Oc1ccc(-c2ccc3nnc(C(F)(F)F)n3c2)cc1 [Compound A, 6-(4-(trifluoromethoxy)phenyl)-3-(trifluoromethyl)-[1,2,4]triazolo[4,3-α]pyridine]	40	51±9	90.0±2.8	0.51±0.16	significantly less	significantly prevented the increase	significantly lower	significantly lower				
COc1ccccc1OCC(O)CN1CCN(CC(=O)Nc2c(C)cccc2C)CC1 (racemic) [Ranolazine, ±-N-(2,6-dimethylphenyl)-4-[2-hydroxy-3-(2-methoxyphenoxy)-propyl]-1-piperazineacetamide]			91.2±1.5	0.36±0.1	significantly less	significantly prevented the increase	significantly lower	significantly lower	25	10	36±4	12.1±2.4
